According to US20190343922A1, “HISTATIN FOR CORNEAL WOUND HEALING AND OCULAR SURFACE DISEASE” (Rapid Pathogen Screening, Inc., priority 2012, published 2019):

Legend:
[1] = system: corneal wounds; test: Corneal epithelial defect wound healing in rabbits (fluorescein staining, computerized area determination); type: in vivo, New Zealand White rabbits
Protocol: The study disclosed herein evaluates and quantifies the wound healing effects of histatins on the ocular surface of New Zealand White rabbits.
Epithelial defects are created in the right eye (oculus dexter, OD) of 12 New Zealand White rabbits. Due to animal regulations, bilateral wounding is not permitted. After the epithelial defects are made, the rabbits are randomized into treatment groups. Two (2) groups are treated with different cyclized histatin concentrations: 0.1 μg/ml and 10 μg/ml dissolved into an ophthalmic artificial tear preparation and delivered to the rabbits as an eye drop three times daily. Histatins known in the art, including, but not limited to, amino acid SEQ ID NOS: 1 through 33, which include Hst-1 (SEQ ID NO: 4), Hst-2 (SEQ ID NO: 5), Hst-3 (SEQ ID NO: 6), Hst-5 (SEQ ID NO: 30), and sortase cyclized histatin (SEQ ID NO: 33), may be used in these studies or in treatment protocols. […] This control group should receive the same vehicle identical to the other two groups but without histatin. An over-the-counter artificial tear preferably serves as the vehicle. The initial study included four (4) animals/group in three (3) groups, for a total of twelve rabbits.
Each rabbit group is preferably given moxifloxicin treatment to prevent infection.
(§1) The corneal wounds are then evaluated daily for the corneal wound healing abilities of histatin via fluorescein staining, fluorescent slit lamp biomicrophotography and computerized area determination. Evaluators are masked to the therapeutic treatment given to the rabbits. After healing, two (2) animals from each group are euthanized, and the corneas collected for histological processing (H&E staining with subsequent evaluation by veterinary histopathologist). The decision to perform histopathologic analysis after tissue procurement is made only if there is proven difference in healing between the different treatment groups and the controls. At study termination (study preferably continues for seven days), the remaining animals are euthanized.

[2] = system: rabbit corneas; settings: in vivo
Protocol: as §1
The histatin used in this study was cyclized histatin 1.

“cyclo(DNLPETGGDSHEKRHHGYRRKFHEKHHSHREFPFYGDYGSNYLY) [cyclized histatin 1]” was tested, and the Corneal wound size ([1]; 0.1 μg/ml eye drop three times daily, 54 hours post wound) was 0.00 ± 0.00 mm^2, the Corneal wound size ([1]; 0.1 μg/ml eye drop three times daily, 72 hours post wound) was 0.00 ± 0.00 mm^2 and the “Percentage of 1 hour post wound size” value ([1]; 0.1 ug/ml, 0 hours post wound) was 100%. The “Percentage of 1 hour post wound size” value ([1]; 0.1 ug/ml, 6 hours post wound) was 85%, the “Percentage of 1 hour post wound size” value ([1]; 0.1 ug/ml, 24 hours post wound) was 69% and the “Percentage of 1 hour post wound size” value ([1]; 0.1 ug/ml, 30 hours post wound) was 43%. The “Percentage of 1 hour post wound size” value ([1]; 0.1 ug/ml, 48 hours post wound) was 2%, the “Percentage of 1 hour post wound size” value ([1]; 0.1 ug/ml, 54 hours post wound) was 0% and the “Percentage of 1 hour post wound size” value ([1]; 0.1 ug/ml, 72 hours post wound) was 0%. It also gave a Corneal wound size ([1]; 10 μg/ml eye drop three times daily, 48 hours post wound) of 0.00 ± 0.07 mm^2, a Corneal wound size ([1]; 10 μg/ml eye drop three times daily, 54 hours post wound) of 0.00 ± 0.00 mm^2 and a Corneal wound size ([1]; 10 μg/ml eye drop three times daily, 72 hours post wound) of 0.00 ± 0.00 mm^2. For the same substance, the “Percentage of 1 hour post wound size” value ([1]; 10 ug/ml, 0 hours post wound) was 100%, the “Percentage of 1 hour post wound size” value ([1]; 10 ug/ml, 6 hours post wound) was 84% and the “Percentage of 1 hour post wound size” value ([1]; 10 ug/ml, 24 hours post wound) was 58%. The “Percentage of 1 hour post wound size” value ([1]; 10 ug/ml, 30 hours post wound) was 43%, the “Percentage of 1 hour post wound size” value ([1]; 10 ug/ml, 48 hours post wound) was 0% and the “Percentage of 1 hour post wound size” value ([1]; 10 ug/ml, 54 hours post wound) was 0%. The “Percentage of 1 hour post wound size” value ([1]; 10 ug/ml, 72 hours post wound) was 0%, the “Healing activity of corneal wounds” value ([1]; 0.1 and 10 μg/ml vs control, rabbits) was “significant dose dependent accelerated healing activity” and the “Wound healing speed compared with control at each time point” value ([1]; wounds treated with 0.1 μg/ml or 10 μg/ml) was “healed faster”. For the same substance, the “Toxicity on pathological analysis of corneas” value [2] was “no toxicity”.
